Source: patent US12338270B2, “Pharmaceutical composition comprising polypeptide” (D&D Pharmatech Inc., priority 2018, dated 2025)
Non-standard residues stand in square brackets, D forms with d. No end group written: not given here. tri‑branched mPEG‑MAL 50 kDa = tri-branched maleimide-activated monomethoxy PEG, 50 kDa; Aib = CC(C)(N)C(=O)O

Key:
Assay type in all cases: in vivo
db/db mice [1] = test: glycated hemoglobin (HbA1c) in db/db mice after administration; conditions: db/db mice after administration of 20 nmol/kg s.c. once every other day; FIG. 3
Procedure: (§1) Next, to perform an intraperitoneal glucose tolerance test (ipGTT), 2 g/kg of glucose was administered intraperitoneally after the 12-day administration of the drug, and a change in blood glucose with the elapse of time (0, 15, 30, 60, 90, and 120 minutes) was measured. To determine a degree of long-term change in average blood glucose level, a level of glycated hemoglobin (HbA1c) was also measured after the drug administration.

[2] = system: obesity animal model (C57BL/6 mice, 60% high-fat diet); test: intraperitoneal glucose tolerance test (ipGTT) in obesity model after 2-week administration (Experimental Example 3); design: blood glucose in ipGTT: unit not given here; conditions: after 2 weeks of 20 nmol/kg s.c. once every other day
Procedure: This experiment was performed in the same manner as in Experimental Example 2, and then the glucose tolerance was evaluated in a mouse model using an intraperitoneal glucose tolerance test (ipGTT).
After the 2-weeks administration of the drugs was completed in the same manner as in Experimental Example 2, 2 g/kg of glucose was administered intraperitoneally to measure a change in blood glucose with the elapse of time (0, 15, 30, 60, 90, and 120 minutes).

[3] = system: animal model of non-alcoholic fatty liver diseases (C57BL/6 mice, high-trans-fat diet); test: liver biopsy and NAFLD activity score, high-trans-fat diet model (Experimental Example 9); conditions: 20 nmol/kg s.c. once every three days for 4 weeks
Procedure: After the experiment was conducted in the same manner as in Experimental Example 8, a liver biopsy was conducted and an NAFLD activity score (NAS) was measured to check a preventing or therapeutic effect on non-alcoholic fatty liver diseases. An experiment was performed in the same manner as in Experimental Example 8, after the 4-week administration of the conjugate of Example 2, the mouse livers were extracted, embedded in paraffin, and then microtomed into thin slices. Thereafter, a hematoxylin & eosin (H&E) stain and an oil-red-O stain were conducted.

[4] = system: obesity animal model (C57BL/6 mice, 60% high-fat diet); test: final body weight with different dose and dosing frequency in obesity model (Experimental Example 5); conditions: FIG. 4
Procedure: First, an obesity animal model was prepared by feeding a 60% high-fat diet to normal C57BL/6 mice (approximately 6 weeks old) for approximately 24 weeks, and increasing the body weights of the mice to approximately 50 g in average. After 2 weeks, the final body weights of the mice were measured.

[5] = system: obesity animal model (C57BL/6 mice, 60% high-fat diet); test: body weight, food intake and blood glucose in high-fat diet obesity animal model (Experimental Example 2); conditions: for Blood glucose / Body weight / Food intake: 20 nmol/kg s.c. once every other day; for Food intake: cumulative
Procedure: First, an obesity animal model was prepared by feeding a 60% high-fat diet to normal C57BL/6 mice (approximately 6 weeks old) for approximately 24 weeks, and increasing the body weights of the mice to approximately 50 g on average. Thereafter, the conjugate of Example 2 was administered by subcutaneous injection at a dose of 20 nmol/kg once every other day for 2 weeks. […] For 2 weeks when the drug was administered, the food intake, the blood glucose, and the body weights were measured once every other day at given points of time.
In this case, the body weights and the blood glucose were expressed in the percentage (%) on the basis of 100% before the administration (Day 0).

[6] = system: obesity animal model (C57BL/6 mice, 60% high-fat diet); test: ipGTT in obesity model, Examples 2 and 6 (Experimental Example 6); conditions: 2 g/kg glucose i.p. after 2 weeks of 20 nmol/kg s.c. once every other day; FIG. 6
Procedure: To check a preventing or therapeutic effect of the conjugates of Examples 2 and 6, which had different amino acid sequences, on obesity or diabetes, an animal model of obesity was prepared by feeding a 60% high-fat diet to normal C57BL/6 mice (approximately 6 weeks old) for approximately 24 weeks, and increasing the body weights of the mice to approximately 50 g in average. Thereafter, each of the conjugates of Examples 2 or 6 was administered by subcutaneous injection at a dose of 20 nmol/kg once every other day for 2 weeks. As the control, PBS was administered instead of the conjugates of Examples. For 2 weeks when the conjugates of Examples 2 or 6 were administered, changes in blood glucose with time were measured. Also, to perform an intraperitoneal glucose tolerance test (ipGTT), 2 g/kg of glucose was administered intraperitoneally after the 2-week administration of the drug, and changes in blood glucose with the elapse of time (0, 15, 30, 60, 90, and 120 minutes) were measured.

db/db mice [7] = test: ipGTT in db/db mice after 12-day administration; design: blood glucose in ipGTT: unit not given here; conditions: for blood glucose in ipGTT: db/db mice after 12 days of 20 nmol/kg s.c. once every other day
Procedure: as §1

[8] = system: animal model of non-alcoholic fatty liver diseases (C57BL/6 mice, 60% high-fat diet); test: non-alcoholic fatty liver disease model, 60% high-fat diet (Experimental Example 7); conditions: 20 nmol/kg s.c. once every other day for 2 weeks
Procedure: Specifically, first of all, a laboratory animal model of non-alcoholic fatty liver diseases was prepared by feeding a 60% high-fat diet to normal C57BL/6 mice (approximately 6 weeks old) for approximately 24 weeks, and increasing the body weights of the mice to approximately 50 g in average. Thereafter, the conjugate of Example 2 was administered by subcutaneous injection at a dose of 20 nmol/kg once every other day for 2 weeks. […] After the 2-week administration of the drug, blood was collected from the mice to measure a serum cholesterol concentration, and the livers were extracted, weighed, embedded in paraffin, and then microtomed into thin slices. Thereafter, the liver biopsy was conducted using a hematoxylin & eosin (H&E).

[9] = 0 min after 2 g/kg glucose i.p.
[10] = 15 min after 2 g/kg glucose i.p.
[11] = 30 min after 2 g/kg glucose i.p.
[12] = 60 min after 2 g/kg glucose i.p.
[13] = 90 min after 2 g/kg glucose i.p.
[14] = 120 min after 2 g/kg glucose i.p.
[15] = 20 nmol/kg s.c. once every other day for 2 weeks
[16] = day 0 (before administration = 100%)

Example 2: Conjugate of polypeptide H(Aib)QGTFTSDYSKYLDEQAAKEFVQWLMNTC (SEQ ID NO. 2) and tri-branched mPEG-MAL (MW: 50 kDa) (H[Aib]QGTFTSDYSKYLDEQAAKEFVQWLMNTC(tri‑branched mPEG‑MAL 50 kDa); lactam (positions not given here); not fully specified (bridges); printed as H(Aib)QGTFTSDYSKYLDEQAAKEFVQWLMNTC)
level of glycated hemoglobin (HbA1c) (db/db mice [1]): significantly lower a level of glycated hemoglobin | blood glucose in ipGTT [2, 9]: 40 | blood glucose in ipGTT [2, 10]: 216 | blood glucose in ipGTT [2, 11]: 172 | blood glucose in ipGTT [2, 12]: 61 | blood glucose in ipGTT [2, 13]: 48 | blood glucose in ipGTT [2, 14]: 44 | increase in blood glucose in ipGTT vs non-treated group [2]: an increase in blood glucose was significantly reduced | hepatic steatosis vs non-treated group and positive control ([3]; FIG. 13): significantly reduced | NAFLD activity score (NAS) vs non-treated group and positive control ([3]; FIG. 14): significantly reduced | effect on body weight loss [4, 15]: significant effect on the body weight loss | effect on body weight loss with extended interval ([4]; 40 nmol/kg s.c. once a week for 2 weeks): the same effect on the body weight loss | dose dependence of body weight loss ([4]; 20 vs 40 nmol/kg s.c. once every other day for 2 weeks): dose-dependent response | level of blood glucose reduced compared to before the administration [5, 15]: approximately 80% | Blood glucose [5, 16]: 100% | Body weight [5, 16]: 100% | Food intake ([5]; day 0): 0 g | Blood glucose ([5]; day 2, % of Day 0): 87% | Body weight ([5]; day 2, % of Day 0): 97% | Food intake ([5]; day 2): 4 g | Blood glucose ([5]; day 4, % of Day 0): 75% | Body weight ([5]; day 4, % of Day 0): 94% | Food intake ([5]; day 4): 8 g | Blood glucose ([5]; day 6, % of Day 0): 48% | Body weight ([5]; day 6, % of Day 0): 89% | Food intake ([5]; day 6): 11 g | Blood glucose ([5]; day 8, % of Day 0): 32% | Body weight ([5]; day 8, % of Day 0): 82% | Food intake ([5]; day 8): 13 g | Blood glucose ([5]; day 10, % of Day 0): 35% | Body weight ([5]; day 10, % of Day 0): 74% | Food intake ([5]; day 10): 15 g | Blood glucose ([5]; day 12, % of Day 0): 32% | Body weight ([5]; day 12, % of Day 0): 68% | Food intake ([5]; day 12): 17 g | Blood glucose ([5]; day 14, % of Day 0): 18% | Body weight ([5]; day 14, % of Day 0): 61% | increase in blood glucose in ipGTT vs control [6]: an increase in blood glucose was significantly reduced | blood glucose in ipGTT (db/db mice [7]; [9]): 63 | blood glucose in ipGTT (db/db mice [7]; [10]): 190 | blood glucose in ipGTT (db/db mice [7]; [11]): 246 | blood glucose in ipGTT (db/db mice [7]; [12]): 341 | blood glucose in ipGTT (db/db mice [7]; [13]): 356 | blood glucose in ipGTT (db/db mice [7]; [14]): 396 | glucose tolerance in ipGTT (db/db mice [7]; db/db mice after 12-day administration): higher glucose tolerance than the non-treated group | hepatic steatosis in liver biopsy vs non-treated group ([8]; H&E, also reduced vs liraglutide, FIG. 9): significantly reduced | level of serum cholesterol vs non-treated group ([8]; also lowered vs liraglutide, FIG. 7): significantly lowered | liver weights vs non-treated group ([8]; also lowered vs liraglutide, FIG. 8): significantly lowered
